Values of other authors in patent US20060127910A1, “Bpl1 as an antifungal target” (priority 2002, published 2006).

Settings: mice, DOX 2 mg/ml in 5% sucrose solution as drinking water, approx. 5 ml per day

In the case of C[C@H]1c2cccc(O)c2C(O)=C2C(=O)[C@]3(O)C(O)=C(C(N)=O)C(=O)[C@@H](N(C)C)[C@@H]3[C@@H](O)[C@@H]21 [DOX, doxycycline], the “concentration of DOX in kidney” value (kidney) is given as > 10 mg/g of kidney, the “concentration of DOX in liver” value (liver) is given as > 8 mg/g of liver and the “concentration of DOX in serum” value (serum) is given as “more than 2 mg/ml of serum”.
